What follows are compounds tested against T1, FimH (Escherichia coli, UniProt Q1R2J4). Details: concentration reducing bacterial agglutination of guinea pig red blood cells by greater than 90%; UTI89 bacteria.
T1 construct: performed with UTI89 bacteria and guinea pig red blood cells; endogenous in cells; host or cells: UTI89 bacteria (whole cells, type 1 piliated)
Type: cell-based
Method: The hemagglutination inhibition (HAI) assay was performed with UTI89 bacteria and guinea pig red blood cells, as previously described (S. J. Hultgren, W. R. Schwan, A. J. Schaeffer, J. L. Duncan Infect. Immun. 1986, 54, 613-620).

| Structure (SMILES) | HAI titer EC>90 [µM] |
| --- | --- |
| CNC(=O)c1cccc(-c2ccc(C(OC)[C@H]3O[C@H](CO)[C@@H](O)[C@H](O)[C@@H]3O)cc2C)c1 (single isomer, unassigned) [Example 8] | 0.5 |
| Cc1cc(-c2ccc3cc[nH]c(=O)c3c2)cc(C)c1[C@@H](O)[C@H]1OC(CO)[C@@H](O)[C@H](O)C1O (single isomer, unassigned) [Example 29] | 0.108 |
| Cc1cc(-c2ccc3cc[nH]c(=O)c3c2)cc(C)c1[C@H](O)[C@H]1OC(CO)[C@@H](O)[C@H](O)C1O (single isomer, unassigned) [Example 30] | 0.406 |
| CNC(=O)c1cccc(-c2ccc([C@H](O)[C@H]3OC(CO)[C@@H](O)[C@H](O)C3O)c(C(F)(F)F)c2)c1 (single isomer, unassigned) [Example 40] | 5 |
| Cc1cc(-c2cccc3c2CCN(C)C3)ccc1[C@@H](O)[C@H]1O[C@H](CO)[C@@H](O)[C@H](O)[C@@H]1O [Example 5, (2R,3S,4S,5S,6R)-2-((R)-hydroxy(2-methyl-4-(2-methyl-1,2,3,4-tetrahydroisoquinolin-5-yl)phenyl)methyl)-6-(hydroxymethyl)tetrahydro-2H-pyran-3,4,5-triol] | 1 |
| CNC(=O)c1cccc(-c2ccc([C@@H](N)[C@H]3O[C@H](CO)[C@@H](O)[C@H](O)[C@@H]3O)c(C)c2)c1 [Example 6, 4′-((R)-amino((2R,3S,4R,5S,6R)-3,4,5-trihydroxy-6-(hydroxymethyl)tetrahydro-2H-pyran-2-yl)methyl)-N,3′-dimethylbiphenyl-3-carboxamide] | 0.5 |
| CNC(=O)c1cccc(-c2ccc([C@@H](OC)[C@H]3O[C@H](CO)[C@@H](O)[C@H](O)[C@@H]3O)c(C)c2)c1 [Example 7, 4′-((R)-methoxy((2S,3S,4S,5S,6R)-3,4,5-trihydroxy-6-(hydroxymethyl)tetrahydro-2H-pyran-2-yl)methyl)-N,3′-dimethylbiphenyl-3-carboxamide] | 2 |
| CNC(=O)c1cccc(-c2ccc(C(F)(F)[C@H]3O[C@H](CO)[C@@H](O)[C@H](O)[C@@H]3O)c(C)c2)c1 [Example 9, 4′-(difluoro((2S,3S,4S,5S,6R)-3,4,5-trihydroxy-6-(hydroxymethyl)tetrahydro-2H-pyran-2-yl)methyl)-N,3′-dimethylbiphenyl-3-carboxamide] | 1.5 |
| Cc1cc(-c2ccc3cnccc3c2)ccc1[C@@H](O)[C@H]1O[C@H](CO)[C@@H](O)[C@H](O)[C@@H]1O [Example 10, (2R,3S,4S,5S,6R)-2-((R)-Hydroxy (4-(isoquinolin-6-yl)-2-methylphenyl)methyl)-6-(hydroxymethyl)-tetrahydro-2H-pyran-3,4,5-triol] | 0.052 |
| Cc1cc(-c2ccc3ccn(C)c(=O)c3c2)ccc1[C@@H](O)[C@H]1O[C@H](CO)[C@@H](O)[C@H](O)[C@@H]1O [Example 11, 7-(4-((R)-Hydroxy ((2R,3S,4S,5S,6R)-3,4,5-trihydroxy-6-(hydroxymethyl)-tetrahydro-2H-pyran-2-yl)methyl)-3-methylphenyl)-2-methylisoquinolin-1 (2H)-one] | 0.011 |
| Cc1cc(-c2ccc3c(c2)C(=O)N(C)CC3)ccc1[C@@H](O)[C@H]1O[C@H](CO)[C@@H](O)[C@H](O)[C@@H]1O [Example 12, 7-(4-((R)-Hydroxy ((2R,3S,4S,5S,6R)-3,4,5-trihydroxy-6-(hydroxymethyl)-tetrahydro-2H-pyran-2-yl)methyl)-3-methylphenyl)-2-methyl-3,4-dihydroisoquinolin-1 (2H)-one] | 0.008 |
| Cc1cc(-c2cccc3c2CNC3=O)ccc1[C@@H](O)[C@H]1O[C@H](CO)[C@@H](O)[C@H](O)[C@@H]1O [Example 13, 4-(4-((R)-Hydroxy ((2R,3S,4S,5S,6R)-3,4,5-trihydroxy-6-(hydroxymethyl)-tetrahydro-2H-pyran-2-yl)methyl)-3-methylphenyl)isoindolin-1-one] | 0.083 |
| Cc1cc(-c2ccc3ncccc3c2)ccc1[C@@H](O)[C@H]1O[C@H](CO)[C@@H](O)[C@H](O)[C@@H]1O [Example 14, (2R,3S,4S,5S,6R)-2-((R)-Hydroxy (2-methyl-4-(quinolin-6-yl)phenyl)methyl)-6-(hydroxymethyl)-tetrahydro-2H-pyran-3,4,5-triol] | 0.032 |
| Cc1cc(-c2ccc3cccnc3c2)ccc1[C@@H](O)[C@H]1O[C@H](CO)[C@@H](O)[C@H](O)[C@@H]1O [Example 15, (2R,3S,4S,5S,6R)-2-((R)-Hydroxy (2-methyl-4-(quinolin-7-yl)phenyl)methyl)-6-(hydroxymethyl)-tetrahydro-2H-pyran-3,4,5-triol] | 0.015 |
| Cc1cc(-c2ccc3ncn(C)c3c2)ccc1[C@@H](O)[C@H]1O[C@H](CO)[C@@H](O)[C@H](O)[C@@H]1O [Example 16, (2R,3S,4S,5S,6R)-2-((R)-Hydroxy (2-methyl-4-(3-methyl-3H-benzo[d]imidazol-5-yl)phenyl)methyl)-6-(hydroxymethyl)-tetrahydro-2H-pyran-3,4,5-triol] | 0.042 |
| Cc1cc(-c2ccc3nc[nH]c3c2)ccc1[C@@H](O)[C@H]1O[C@H](CO)[C@@H](O)[C@H](O)[C@@H]1O [Example 17, (2R,3S,4S,5S,6R)-2-((R)-(4-(3H-Benzo[d]imidazol-5-yl)-2-methylphenyl) (hydroxy)methyl)-6-(hydroxymethyl)-tetrahydro-2H-pyran-3,4,5-triol] | 0.037 |
| Cc1cc(-c2cccc3c(N)n[nH]c23)ccc1[C@@H](O)[C@H]1O[C@H](CO)[C@@H](O)[C@H](O)[C@@H]1O [Example 18, (2R,3S,4S,5S,6R)-2-((R)-(4-(3-Amino-1H-indazol-7-yl)-2-methylphenyl) (hydroxy)methyl)-6-(hydroxymethyl)-tetrahydro-2H-pyran-3,4,5-triol] | 0.006 |
| Cc1cc(-c2ccc3c(c2)C(=O)NC3)ccc1[C@@H](O)[C@H]1O[C@H](CO)[C@@H](O)[C@H](O)[C@@H]1O [Example 19, 6-(4-((R)-Hydroxy ((2R,3S,4S,5S,6R)-3,4,5-trihydroxy-6-(hydroxymethyl)-tetrahydro-2H-pyran-2-yl)methyl)-3-methylphenyl)isoindolin-1-one] | 0.016 |
| Cc1cc(-c2ccc3onc(C)c3c2)ccc1[C@@H](O)[C@H]1O[C@H](CO)[C@@H](O)[C@H](O)[C@@H]1O [Example 20, (2R,3S,4S,5S,6R)-2-((R)-Hydroxy (2-methyl-4-(3-methylbenzo[d]isoxazol-5-yl)phenyl)methyl)-6-(hydroxymethyl)-tetrahydro-2H-pyran-3,4,5-triol] | 0.068 |
| Cc1cc(-c2ccc3ccncc3c2)ccc1[C@@H](O)[C@H]1O[C@H](CO)[C@@H](O)[C@H](O)[C@@H]1O [Example 21, (2R,3S,4S,5S,6R)-2-((R)-Hydroxy (4-(isoquinolin-7-yl)-2-methylphenyl)methyl)-6-(hydroxymethyl)-tetrahydro-2H-pyran-3,4,5-triol] | 0.016 |
| Cc1cc(-c2ccnc(Cl)c2)ccc1[C@@H](O)[C@H]1O[C@H](CO)[C@@H](O)[C@H](O)[C@@H]1O [Example 22, (2R,3S,4S,5S,6R)-2-((R)-(4-(2-Chloropyridin-4-yl)-2-methylphenyl) (hydroxy)methyl)-6-(hydroxymethyl)-tetrahydro-2H-pyran-3,4,5-triol] | 0.027 |
| Cc1cc(-c2ccnc(-c3ccnc(Cl)c3)c2)ccc1[C@@H](O)[C@H]1O[C@H](CO)[C@@H](O)[C@H](O)[C@@H]1O [Example 23, (2R,3S,4S,5S,6R)-2-((R)-(4-(2′-Chloro-[2,4′-bipyridin]-4-yl)-2-methylphenyl) (hydroxy)methyl)-6-(hydroxymethyl)tetrahydro-2H-pyran-3,4,5-triol] | 0.008 |
| CNc1cc(-c2ccc([C@@H](O)[C@H]3O[C@H](CO)[C@@H](O)[C@H](O)[C@@H]3O)c(C)c2)ccn1 [Example 24, (2R,3S,4S,5S,6R)-2-((R)-Hydroxy (2-methyl-4-(2-(methylamino)pyridin-4-yl)phenyl)methyl)-6-(hydroxymethyl)-tetrahydro-2H-pyran-3,4,5-triol] | 0.032 |
| Cc1cc(-c2ccnc(N3CCOCC3)c2)ccc1[C@@H](O)[C@H]1O[C@H](CO)[C@@H](O)[C@H](O)[C@@H]1O [Example 25, (2R,3S,4S,5S,6R)-2-((R)-Hydroxy (2-methyl-4-(2-morpholinopyridin-4-yl)phenyl)methyl)-6-(hydroxymethyl)-tetrahydro-2H-pyran-3,4,5-triol] | 0.006 |
| Cc1cc(-c2ccnc(N)c2)ccc1[C@@H](O)[C@H]1O[C@H](CO)[C@@H](O)[C@H](O)[C@@H]1O [Example 26, (2R,3S,4S,5S,6R)-2-((R)-(4-(2-Aminopyridin-4-yl)-2-methylphenyl) (hydroxy)methyl)-6-(hydroxymethyl)-tetrahydro-2H-pyran-3,4,5-triol] | 0.039 |
| Cc1cc(-c2ccnc(N(C)C)c2)ccc1[C@@H](O)[C@H]1O[C@H](CO)[C@@H](O)[C@H](O)[C@@H]1O [Example 27, (2R,3S,4S,5S,6R)-2-((R)-(4-(2-(Dimethylamino)pyridin-4-yl)-2-methylphenyl) (hydroxy)methyl)-6-(hydroxymethyl)-tetrahydro-2H-pyran-3,4,5-triol] | 0.016 |
| Cc1cc(-c2ccc3onc(N)c3c2)ccc1[C@@H](O)[C@H]1O[C@H](CO)[C@@H](O)[C@H](O)[C@@H]1O [Example 28, (2R,3S,4S,5S,6R)-2-((R)-(4-(3-Aminobenzo[d]isoxazol-5-yl)-2-methylphenyl) (hydroxy)methyl)-6-(hydroxymethyl)-tetrahydro-2H-pyran-3,4,5-triol] | 0.027 |

— patent publication US20200002303A1, “C-GLYCOSIDE COMPOUNDS USEFUL FOR TREATING DISEASE” (Fimbrion Therapeutics, Inc., priority 2016, published 2020)
